Data published in patent publication US20010041669A1, “Prevention of diabetes” (priority 1995, published 2001).

Columns and labels:
[1] = test system: receptor (receptor binding assay) or mouse free fat cell (lipogenesis); experiment: Biological activity relative to human insulin, receptor binding or lipogenesis assays; conditions: for Activity relative to human insulin (= 1.00): either receptor binding or lipogenesis assays
Source text: Metab. Res. 6, 12-16 and Vølund (1978) Biometrics 34, 357-365 or in the receptor binding assay as described by Andersen et al. (1992) J. Biol. Chem. 267, 13681-13686.
Methods of analysing the biological activity (hypoglycaemic effect) of insulins are well know, and include receptor binding assays using whole cells or soluble receptors, the mouse free fat cell assay, euglycaemic pig clamp assay, intravenous rabbit blood glucose assay and the subcutaneous mouse blood glucose assay (Vølund et al. (1991) Diabetic Medicine, 8, 839-847, Brange et al. (1990) Diabetes Care 13, 923-954, Drejer (1992) Diabetes/Metabolism Reviews 8, 259-286)

NOD mice [2] = experiment: Effect on blood glucose level of daily subcutaneous injection in NOD mice (Example 1); type: in vivo, mouse; conditions: for effect on blood glucose level: day 7, 6 hours after injection, female NOD mice
Procedure: Furthermore, 4 of the 5 animals receiving insulin (3.8 mg/kg) died of hypoglycaemia after 3-5 days of treatment and animal number five had to be sacrificed on day seven due to symptoms of hypoglycaemia.

NOD mice [3] = experiment: Prophylactic effect of daily subcutaneous administration on diabetes and survival in NOD mice (Example 2); type: in vivo; conditions: for protection against development of diabetes compared with human insulin: daily s.c., equimolar doses (0.77 mg/kg), NOD mice; for diabetes incidence versus buffer treated animals at 40 weeks of age: s.c. daily 0.77 mg/kg from 5 to 32 weeks of age, after termination of treatment; for diabetes incidence versus buffer treated animals at 31 weeks of age: s.c. daily 0.77 mg/kg from 5 weeks of age, after 26 weeks of treatment, female NOD mice; for mice died of hypoglycaemia during the treatment period: 0.77 mg/kg
Procedure: Female NOD (non-obese diabetic) mice, 4 weeks old, were obtained from Bommice (Bomholtgård, Ry, Denmark). At the beginning of the experiment there were a total of 30 animals in each of the three groups mentioned below. […] The treatment was continued until the mice were 32 weeks old, at which age treatment was stopped and the mice observed until they were 40 weeks old. Beginning when the mice were 10 weeks old, the urine was tested weekly for the presence of glucose using glucosuria test tape (Tes-Tape, Lilly, Indianapolis, Ind.). If an animal tested positive in the glucose urine test, a blood sample was taken and blood glucose measured using a glucose analyzer. If the blood glucose was 15 mmol/l or higher, the animal was classified as diabetic and then sacrificed.

NOD mice [4] = experiment: Daily subcutaneous administration in the initial stage of diabetes in NOD mice (Example 3); type: in vivo; conditions: for frequency of diabetes compared to buffer treated animals: s.c. daily 0.77 mg/kg from 10 to 37 weeks of age, effect from 15 weeks until end, female NOD mice; for cases of diabetes after termination of the treatment: treatment stopped at 37 weeks, observed until 39 weeks
Procedure: Female NOD (non-obese diabetic) mice, 4-5 weeks old, were obtained from the Jackson Laboratory (Bar Harbour, Me.). At the beginning of the experiment, there were a total of 20 animals in each of the three groups mentioned below. […] The treatment was continued until the mice were 37 weeks old, at which age treatment was stopped. The mice were observed until they were 39 weeks old. Beginning when the mice were 10 weeks old, the urine was tested weekly for the presence of glucose using glucosuria test tape (Tes-Tape, Lilly, Indianapolis, Ind.). If an animal tested positive in the glucose urine test, a blood sample was taken and blood glucose measured using a glucose analyzer. If the blood glucose was 15 mmol/l or higher, the animal was classified as diabetic and sacrificed.

C57/BL mice = experiment: Effect of oral administration on blood glucose level in mice (Example 4); type: in vivo, mouse; conditions: oral gavage 1 mg, 2 times a week, after 4 weeks of treatment; non-fasted; 15 minutes
Procedure: After 4 weeks of treatment, the effect on the blood glucose level in non-fasted animals was analyzed. An initial blood sample was taken in order to determine the control blood glucose level. 15-30 minutes later the animals were fed by gavage and the blood glucose level was determined after further 15, 60 and 180 minutes. […] Insulin is a well known growth factor and has a direct mitogenic effect. The consequence of having a high concentration of intact insulin in the gut lumen directly exposing gut epithelium to its effect is not known but could potentially be serious.

Row | Substance | Activity relative to human insulin (= 1.00) [1] | other results
1 | Abu^A2,Abu^A3 human insulin | 0.0041 | –
2 | Ala^A2 human insulin | 0.006 | –
3 | Asn^B12 human insulin | 0.002 | –
4 | Asp^B25 human insulin | 0.001 | hormonally active (relative to human insulin) [1]: less than 0.1%; mice died or displayed hypoglycaemia (NOD mice [2]; s.c. daily 17.3, 5.8 or 0.6 mg/kg, 26 days observation period): None; effect on blood glucose level (NOD mice [2]; s.c. daily 17.3, 5.8 or 0.6 mg/kg): do not affect the blood glucose levels; cases of diabetes after termination of treatment (NOD mice [3]; 0.77 mg/kg s.c. daily until 32 weeks, observed until 40 weeks): 1 case; protection against development of diabetes compared with human insulin (NOD mice [3]; listed as X38, 0.77 mg/kg): prevented the development of diabetes to the same, or higher degree as insulin did; protection against development of diabetes compared with human insulin (NOD mice [3]; listed as human insulin with a single amino acid substitution in position B25, 0.77 mg/kg): protects as well against diabetes as equimolar doses of human insulin does; diabetes incidence versus buffer treated animals at 40 weeks of age (NOD mice [3]): still highly significantly lower; diabetes incidence versus buffer treated animals at 31 weeks of age (NOD mice [3]): highly significantly (p<0.01) lower; treated animals died (NOD mice [3]; s.c. daily 0.77 mg/kg, 30 animals per group, not statistically different from buffer group): one; frequency of diabetes compared to buffer treated animals (NOD mice [4]): reduced the frequency of diabetes to the same, or higher degree as insulin did; treated animals died (NOD mice [4]; s.c. daily 0.77 mg/kg, 20 animals per group): none; cases of diabetes after termination of the treatment (NOD mice [4]): no cases of diabetes occurred
5 | D-Ala^B12 human insulin | 0.007 | –
6 | D-Cys^A6 human insulin | 0.0023 | –
7 | D-Cys^A6,D-Cys^A11 human insulin | 0.00027 | –
8 | D-Cys^A7 human insulin | 0.002 | –
9 | D-Cys^A11 human insulin | 0.007 | –
10 | D-allo Ile^A2 human insulin | 0.002 | –
11 | Glu^B12 human insulin | 0.0004 | –
12 | Gly^A2 human insulin | 0.01 | –
13 | Gly^A2,Gly^A3 human insulin | 0.00014 | –
14 | Gly^B6 human insulin | 0.0005 | –
15 | Leu^A3 human insulin | 0.0018 | –
16 | Leu^A19 human insulin | 0.001 | –
17 | Nle^A2 human insulin | 0.01 | –

Row | Substance | Activity relative to human insulin (= 1.00) [1] | other results
18 | Nle^A3 human insulin | 0.0038 | –
19 | Nva^A3 human insulin | 0.014 | –
20 | Phe^B12 human insulin | 0.002 | –
21 | Pro^A2 human insulin | 0.01 | –
22 | Ser^A6,Ser^A11,des(A8-A10) human insulin | 0.0001 | –
23 | Thr^A2 human insulin | 0.001 | –
24 | Val^A2,Ile^A3 human insulin | 0.021 | –
25 | des (A1-A2) human insulin | 0.0014 | –
26 | des (A1-A3) human insulin | 0.0011 | –
27 | des (B1-B5) human insulin | 0.05 | –
28 | des (B1-B6) human insulin | 0.0004 | –
29 | des (B23-B30) human insulin | 0.001 | –
30 | des (B24-B30) human insulin | 0.002 | –
31 | des (B25-B30) human insulin | 0.06 | –
32 | desA1 human insulin | 0.006 | –
33 | desA21 human insulin | 0.04 | –
34 | human insulin [reference compound] | – | effect on blood glucose level (NOD mice [2]; s.c. daily 0.6 mg/kg): marked hypoglycaemic effect; time of death from hypoglycaemia (NOD mice [2]; s.c. daily 3.8 mg/kg, days of treatment): 3 to 5 days; animals died of hypoglycaemia (NOD mice [2]; s.c. daily 3.8 mg/kg, group of 5 NOD mice): 4 of the 5; diabetes incidence versus buffer treated animals at 40 weeks of age (NOD mice [3]): still significantly (p<0.05) lower; diabetes incidence versus buffer treated animals at 31 weeks of age (NOD mice [3]): significantly reduced the incidence of diabetes; mice died of hypoglycaemia during the treatment period (NOD mice [3]; s.c. daily 0.77 mg/kg, 30 animals per group): approx. 50%; mice died of hypoglycaemia during the treatment period (NOD mice [3]; s.c. daily 0.77 mg/kg, 30 animals per group, listed as insulin): 50%; frequency of diabetes compared to buffer treated animals (NOD mice [4]): reduced the frequency of diabetes; cases of diabetes after termination of the treatment (NOD mice [4]): no cases of diabetes occurred; blood glucose level immediately after feeding (C57/BL mice): profound immediate reduction in the blood glucose level
